Consider 14 molecules from US20250215030A1, “STAT MODULATORS AND USES THEREOF” (Recludix Pharma, Inc., priority 2022, published 2025).

The structures appear in SMILES notation.

For experiment [1], the target named is T1, Recombinant STAT3 protein (STAT3(G127-I722)) (Homo sapiens, UniProt P40763).
T1 construct: STAT3(G127-I722)
The experiment is described as follows: STAT3 Fluorescence Polarization (FP) Assay. The format is binding. The note with it: STAT3(G127-I722) 25 nM, probe 5-FAM-GpYLPQTV-NH2 2 nM, 45-minute incubation. The essentials: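 Serially diluted compounds (1% DMSO) were mixed with 2 nM fluorescent phosphotyrosine peptide and 25 nM STAT3 construct G127-I722, pH 7.4, incubated 45 min at room temperature. IC50 values from fitted polarization curves are reported as categories A (≤100 nM), B, C, D (>10 μM).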

In experiment [2] the target is T2, Recombinant STAT6 protein (STAT6(W123-T658)) (Homo sapiens, UniProt P42226).
T2 construct: STAT6(W123-T658)
T2 sequence (P42226 123-658): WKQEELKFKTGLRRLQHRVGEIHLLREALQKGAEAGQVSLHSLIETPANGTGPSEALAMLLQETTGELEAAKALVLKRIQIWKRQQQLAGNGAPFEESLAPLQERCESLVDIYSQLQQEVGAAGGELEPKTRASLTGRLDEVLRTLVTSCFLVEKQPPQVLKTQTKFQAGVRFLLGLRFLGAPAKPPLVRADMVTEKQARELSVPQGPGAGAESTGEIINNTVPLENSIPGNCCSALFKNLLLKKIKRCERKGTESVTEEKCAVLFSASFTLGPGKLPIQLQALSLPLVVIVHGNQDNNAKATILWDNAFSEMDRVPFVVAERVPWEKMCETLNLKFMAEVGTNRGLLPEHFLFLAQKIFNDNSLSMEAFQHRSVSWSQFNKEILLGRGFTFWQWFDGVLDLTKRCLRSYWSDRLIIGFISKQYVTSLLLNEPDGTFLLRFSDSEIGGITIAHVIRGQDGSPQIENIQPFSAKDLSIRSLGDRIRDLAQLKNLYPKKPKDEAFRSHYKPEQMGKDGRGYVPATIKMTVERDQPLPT
The experiment is described as follows: STAT6 Fluorescence Polarization (FP) Assay. The format is binding. As to conditions: STAT6(W123-T658) 250 nM, probe 5-FAM-ApYKPFQDLI-NH2 2 nM, 45-minute incubation. The essentials: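 Competitive displacement of a fluorescent phosphotyrosine peptide (2 nM) from recombinant STAT6 W123-T658 (250 nM), 45 min at room temperature in 10 mM HEPES pH 7.4, 50 mM NaCl, 2 mM DTT. mP fitted against log compound for IC50, grouped A (≤300 nM) to D (>30 μM).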

T1 sequence (P40763 127-722, species assumed): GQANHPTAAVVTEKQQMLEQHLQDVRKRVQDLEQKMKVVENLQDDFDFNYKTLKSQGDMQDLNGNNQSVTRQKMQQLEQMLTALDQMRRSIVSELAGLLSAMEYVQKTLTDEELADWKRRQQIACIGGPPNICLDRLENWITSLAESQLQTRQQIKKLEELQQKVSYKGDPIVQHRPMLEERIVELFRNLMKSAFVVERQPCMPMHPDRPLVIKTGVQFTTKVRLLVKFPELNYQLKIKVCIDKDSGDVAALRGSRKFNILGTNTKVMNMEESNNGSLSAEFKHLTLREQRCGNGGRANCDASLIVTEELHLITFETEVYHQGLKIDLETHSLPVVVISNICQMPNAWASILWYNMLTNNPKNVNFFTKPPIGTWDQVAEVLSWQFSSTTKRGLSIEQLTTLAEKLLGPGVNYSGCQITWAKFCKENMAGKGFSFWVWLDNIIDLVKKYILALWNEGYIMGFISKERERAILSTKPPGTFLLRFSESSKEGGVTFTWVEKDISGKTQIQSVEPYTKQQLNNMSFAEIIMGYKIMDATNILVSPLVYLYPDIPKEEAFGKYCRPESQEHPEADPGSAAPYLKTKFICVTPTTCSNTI

Regarding `O=C(N[C@H]1C[C@@H]2C[C@@H]2C[C@H]2CC[C@@H](C(=O)N3CC(c4cnccc4N4CCOCC4)C3)N2C1=O)c1cc2cc([C@@H](F)P(=O)(O)O)ccc2s1` (single isomer, unassigned) [Example 405], the IC50 in experiment [1] was less than 100 nM; in experiment [2], 3 to 30 µM.
Consider `CN(C)c1ccncc1C1CN(C(=O)[C@@H]2CC[C@@H]3C[C@@H]4C[C@@H]4C[C@H](NC(=O)c4cc5cc([C@@H](F)P(=O)(O)O)ccc5s4)C(=O)N32)C1` (single isomer, unassigned) [Example 394], for which the IC50 is less than 100 nM in experiment [1] and 3 to 30 µM in experiment [2].
On to `O=C(N[C@H]1C[C@@H]2C[C@@H]2C[C@H]2CC[C@@H](C(=O)N3CC(Oc4ccccn4)C3)N2C1=O)c1cc2cc(CP(=O)(O)O)ccc2s1` [Example 351, ((2-(((3S,6S,7aS,8aR,9aR)-5-oxo-3-(3-(pyridin-2-yloxy)azetidine-1-carbonyl)decahydro-1H-cyclopropa[d]pyrrolo[1,2-a]azocin-6-yl)carbamoyl)benzo[b]thiophen-5-yl)methyl)phosphonic acid], for which the half-maximal inhibitory concentration (IC50) was in the range of 100 to 1000 nM in experiment [1] and 3 to 30 µM in experiment [2].
The matching figures for `O=C(N[C@H]1C[C@@H]2C[C@@H]2C[C@H]2CC[C@@H](C(=O)N3CC4C3CCN4c3cccnc3)N2C1=O)c1cc2cc(CP(=O)(O)O)ccc2s1` (stereo partly drawn) [Example 275, ((2-(((3S,6S,7aS,8aR,9aR)-5-oxo-3-(2-(pyridin-3-yl)-2,6-diazabicyclo[3.2.0]heptane-6-carbonyl)decahydro-1H-cyclopropa[d]pyrrolo[1,2-a]azocin-6-yl)carbamoyl)benzo[b]thiophen-5-yl)methyl)phosphonic acid]: 100 to 1000 nM and 3 to 30 µM.
In the same order, the values of `O=C(N[C@H]1C[C@H]2C[C@H]2C[C@H]2CC[C@@H](C(=O)N3CC[C@H](c4cnccc4F)C3)N2C1=O)c1cc2cc(C(F)P(=O)(O)O)ccc2s1` (stereo partly drawn) [Example 313, (fluoro(2-(((3S,6S,7aR,8aS,9aR)-3-((R)-3-(4-fluoropyridin-3-yl)pyrrolidine-1-carbonyl)-5-oxodecahydro-1H-cyclopropa[d]pyrrolo[1,2-a]azocin-6-yl)carbamoyl)benzo[b]thiophen-5-yl)methyl)phosphonic acid] are less than 100 nM and 0.3 to 3 µM.
Take `O=C(N[C@H]1C[C@@H]2C[C@@H]2C[C@H]2CC[C@@H](C(=O)N3CCOc4cc(F)ccc43)N2C1=O)c1cc2cc(C(F)P(=O)(O)O)ccc2s1` (stereo partly drawn) [Example 384, (fluoro(2-(((3S,6S,7aS,8aR,9aR)-3-(7-fluoro-3,4-dihydro-2H-benzo[b][1,4]oxazine-4-carbonyl)-5-oxodecahydro-1H-cyclopropa[d]pyrrolo[1,2-a]azocin-6-yl)carbamoyl)benzo[b]thiophen-5-yl)methyl)phosphonic acid]: the half-inhibitory concentration (IC50) in experiment [1] lay within 1000 to 10000 nM; in experiment [2], 3 to 30 µM.
With `O=C(N[C@H]1C[C@@H]2C[C@@H]2C[C@H]2CC[C@@H](C(=O)N3CCN(C4CCOCC4)CC3)N2C1=O)c1cc2cc(C(F)(F)P(=O)(O)O)ccc2s1` [Compound 115, (difluoro(2-(((3S,6S,7aS,8aR,9aR)-5-ox0-3-(4-(tetrahydro-2H-pyran-4-yl)piperazine-1-carbonyl)decahydro-1H-cyclopropa[d]pyrrolo[1,2-a]azocin-6-yl)carbamoyl)benzo[b]thiophen-5-yl)methyl)phosphonic acid], the IC50 in experiment [1] lay within 100 to 1000 nM; in experiment [2] it was 0.3 to 3 µM.
The matching figures for `COCC1(F)CN(c2ccncc2C2CN(C(=O)[C@@H]3CC[C@@H]4C[C@H]5C[C@H]5C[C@H](NC(=O)c5cc6cc([C@@H](F)P(=O)(O)O)ccc6s5)C(=O)N43)C2)C1` [Example 425, ((S)-fluoro(2-(((3S,6S,7aS,8aR,9aR)-3-(3-(4-(3-fluoro-3-(methoxymethyl)azetidin-1-yl)pyridin-3-yl)azetidine-1-carbonyl)-5-oxodecahydro-1H-cyclopropa[d]pyrrolo[1,2-a]azocin-6-yl)carbamoyl)benzo[b]thiophen-5-yl)methyl)phosphonic acid]: less than 100 nM and more than 30 µM.
Take `O=C(N[C@H]1C[C@H]2C[C@H]2C[C@H]2CC[C@@H](C(=O)N3CC(c4[nH]nc5c4CCC5)C3)N2C1=O)c1cc2cc(C(F)(F)P(=O)(O)O)ccc2s1` [Compound 77, (difluoro(2-(((3S,6S,7aR,8aS,9aR)-5-oxo-3-(3-(2,4,5,6-tetrahydrocyclopenta[c]pyrazol-3-yl)azetidine-1-carbonyl)decahydro-1H-cyclopropa[d]pyrrolo[1,2-a]azocin-6-yl)carbamoyl)benzo[b]thiophen-5-yl)methyl)phosphonic acid]: the IC50 in experiment [1] is less than 100 nM; in experiment [2], 3 to 30 µM.
The matching figures for `O=C(N[C@H]1C[C@@H]2C[C@@H]2C[C@H]2CC[C@@H](C(=O)N3CC(c4ccccn4)C3)N2C1=O)c1cc2cc(C(F)(F)P(=O)(O)O)ccc2s1` [Compound 97, (difluoro(2-(((3S,6S,7aS,8aR,9aR)-5-ox0-3-(3-(pyridin-2-yl)azetidine-1-carbonyl)decahydro-1H-cyclopropa[d]pyrrolo[1,2-a]azocin-6-yl)carbamoyl)benzo[b]thiophen-5-yl)methyl)phosphonic acid]: less than 100 nM and 3 to 30 µM.
Take `NC(=O)N1CC[C@@H](NC(=O)[C@@H]2CC[C@@H]3C[C@H]4C[C@H]4C[C@H](NC(=O)c4cc5cc(C(F)(F)P(=O)(O)O)ccc5s4)C(=O)N32)C1` [Compound 118, ((2-(((3S,6S,7aS,8aR,9aR)-3-(((R)-1-carbamoylpyrrolidin-3-yl)carbamoyl)-5-oxodecahydro-1H-cyclopropa[d]pyrrolo[1,2-a]azocin-6-yl)carbamoyl)benzo[b]thiophen-5-yl)difluoromethyl)phosphonic acid]: the concentration for half-maximal inhibition (IC50) in experiment [1] was less than 100 nM; in experiment [2] it was 0.3 to 3 µM.
In the same order, the values of `O=C(N[C@H]1C[C@@H]2C[C@@H]2C[C@H]2CC[C@@H](C(=O)N3CC(Oc4cccnc4)C3)N2C1=O)c1cc2cc(CP(=O)(O)O)ccc2s1` [Example 350, ((2-(((3S,6S,7aS,8aR,9aR)-5-oxo-3-(3-(pyridin-3-yloxy)azetidine-1-carbonyl)decahydro-1H-cyclopropa[d]pyrrolo[1,2-a]azocin-6-yl)carbamoyl)benzo[b]thiophen-5-yl)methyl)phosphonic acid] are 100 to 1000 nM and 3 to 30 µM.
Turning to `N#CC1(c2ccccn2)CN(C(=O)[C@@H]2CC[C@@H]3C[C@H]4C[C@H]4C[C@H](NC(=O)c4cc5cc(C(F)(F)P(=O)(O)O)ccc5s4)C(=O)N32)C1` [Compound 89, ((2-(((3S,6S,7aS,8aR,9aR)-3-(3-cyano-3-(pyridin-2-yl)azetidine-1-carbonyl)-5-oxodecahydro-1H-cyclopropa[d]pyrrolo[1,2-a]azocin-6-yl)carbamoyl)benzo[b]thiophen-5-yl)difluoromethyl)phosphonic acid], the IC50 in experiment [1] is less than 100 nM; in experiment [2], 0.3 to 3 µM.
In the same order, the values of `O=C(N[C@H]1C[C@@H]2C[C@@H]2C[C@H]2CC[C@@H](C(=O)N3CC(c4nccs4)C3)N2C1=O)c1cc2cc(C(F)(F)P(=O)(O)O)ccc2s1` [Example 286, (difluoro(2-(((3S,6S,7aS,8aR,9aR)-5-oxo-3-(3-(thiazol-2-yl)azetidine-1-carbonyl)decahydro-1H-cyclopropa[d]pyrrolo[1,2-a]azocin-6-yl)carbamoyl)benzo[b]thiophen-5-yl)methyl)phosphonic acid] are less than 100 nM and 3 to 30 µM.
